# Results as given in patent US20120100204A1, “TGF-Beta Stimulating Agent Compositions and Combinations” (TCP INNOVATIONS LTD, priority 2007, published 2012).
# Experiments:
# TGF-beta1 = TGF-beta1 protein in the blood vessel wall, quantitative immunofluoresence; format: in vivo; conditions: apoE mice; for TGF-b1 staining: Aspirin 30 mg/kg/day, mean ± SD
# From the text: (§1) Adult male apoE-deficient mice, back-crossed onto a C57B16 background for at least five generations, were randomised into groups of eight animals at 12 weeks of age, such that each group had similar average body weight. […] The amount of food eaten and the body weight of each mouse was monitored daily for the first week, and once per week thereafter. After 12 weeks of treatment, the mice were sacrificed by CO2 asphyxiation, and heart & lung blocks were excised, embedded in Cryo-M-bed (Bright Instruments, UK) without fixation and snap frozen in liquid nitrogen.
# (§2) Sections were then prepared from the aortic root according to the Paigen Strategy (a defined sequence of cutting sections which allow reproducible comparison between animals; see for example Grainger et al. (1995) Nature Med. 1:1067-72 and the references therein). 4 μm crysosections were cut using a motordriven cryotome (Bright Instruments) and collected onto poly-L-lysine coated glass microscope slides, then fixed in ice-cold acetone for 90 secs, allowed to air dry and stored at −20° C. until analysed.
# tgfb3 mRNA = tgfb3 mRNA level by quantitative PCR in human aortic vascular smooth muscle cells; format: cell-based; conditions: 24 hrs
# Method: (1995) Cardiovasc. Res. 29:848-55). […] The cells were then incubated for either 24 hrs or 72 hrs depending on the experiment. All treatment conditions were established in triplicate. The level of mRNA for tgfb1, tgfb2 and tgfb3 were estimated by quantitative PCR. The media was removed and RNA was carefully prepared using the Ambion RNAqueous4PCR kit (Ambion#1914) in accordance with the manufacturer's instructions. The purity of the RNA and the quantity was assessed spectrophotometrically. […] This analysis results in both a gel-like image as well as electrophoretic data. Indications of RNA degradation are: (a) decreasing ratio of ribosomal bands (b) additional peaks bellow the ribosomal bands (c) Decrease in overall RNA signal (d) shift towards shorter fragments. […] Next, the RNA was converted to cDNA using the ABI High-Capacity cDNA Archive Kit, in accordance with manufacturer's instructions. […] Samples were vortexed to ensure thorough mixing. cDNA was aliquoted into ABI 384 well plates using a multi-channel pipette, 4.5 μl of sample into each well. Samples were assayed in triplicate (that is, nine determinations in total were made for each condition, being three separate assays on each of three replicate culture wells). The assay mix and Universal Master Mix were prepared and aliquoted across the 384 well plates 5.5 μl in each well, using a single channel pipette. […] Universal Master Mix=5 μl; cDNA=4.5 μl. The plates were then heat sealed using Abgene clear seal strong plastic heat seals, and then cycled and scanned using the ABI 9700HT under the following conditions: 95° C. for 10 minutes to activate the AmpliTaq GOLD, then 40 cycles of: 95° C. for 15 sec (Denaturation), 60° C. for 60 […]). […] Quantitative PCR was performed using several primer/probe sets. […] We used both commercially available primer/probe sets (ABI Taqman pre-validated assays), using both available sets in the ABI database for tgfb1 and tgfb2, as well as the single available set for tgfb3. In addition, we used our own manual design probe/primer set for each of tgfb1, tgfb2 and tgfb3. […] In all quantitative PCR experiments, several additional controls were included: firstly, a control for each sample is run with no reverse transcription to ensure the mRNA sample is not contaminated with genomic DNA (although the manual design probe/primer sets were all selected to cross an exon/exon boundary, ensuring no detectable amplicon is produced from genomic DNA templates). […] Failure of either control led to the repeat of the entire experiment.
# apoE-deficient mice = assay: vascular lipid lesion formation at the aortic root, Oil Red O staining; format: in vivo; conditions: for Intimal lipid lesion area / Intimal:media area ratio / Lipid lesion area / Total intimal area: Aspirin 30 mg/kg/day, mean ± SD; for reduction of vascular lipid lesion area: Tamoxifen 1 mg/kg/day p.o, vs control
# From the text: as §1, §2
# The extent of vascular lipid lesion formation was assessed by Oil Red O staining, with a Fast Green counterstain, a standard histological procedure well known in the art. Briefly, five sections (selected according to the Paigen strategy) from each animal were passed through graded alcohol solutions, then stained in Oil Red O for 12 minutes, washed several times and then counterstained by dipping in Fast Green for 5-10 secs, and then dip washed in several changes of clean water. After air drying, an appropriate mountant was applied (simple glycerol-based moutants are most appropriate for this task), followed by a coverslip using acrylic varnish surrounding the coverslip to hold it in place. Slides were then analysed using a simple inverted microscope (no phase contrast; 10× objective; Olympus AX series), fitted with a digital camera to capture images of the entire aortic wall. The images were subsequently processed, blind to the treatment status of the animal, using Openlab image analysis software (Improvision, UK) running on an Apple Macintosh computer. On each image, the user delineated the external elastic lamina, internal elastic lamina and the luminal surface of the vessel wall, and the software reported the total intimal area, the intimal:medial area ratio, the total neutral lipid area and the intimal lipid area. The values from each image were summed (except for intimal:media area ratio, which were averaged), and then the values from each slide were summed (or averaged, as above) to yield a value for each parameter for each animal. […]
# Adult male apoE-deficient mice were treated, in groups of 8, with fish oil (Seven Seas, UK), aspirin or both agents simultaneously from 12 weeks of age until 24 weeks of age, exactly as described in Example 2.
# Mice were sacrificed and heart & lung blocks prepared and processed exactly as described in Example 2. Sections were prepared in accordance with the Paigen Strategy, as in example 2. The extent of lipid lesion formation was assessed by Oil Red 0 staining with Fast Green counterstain, exactly as in example 2.
# [1] = 12 to 24 weeks of age, Fish oils 100 mg/kg/day
# [2] = 12 weeks in chow, TMX 1 mg/kg/day
smiles,measurement,setting,value
"CC(=O)Oc1ccccc1C(=O)O [Aspirin, acetylsalicylic acid]",TGF-b1 staining,"TGF-beta1; 12 weeks, TMX 1 mg/kg/day",65 ± 11 AU
same,level of TGF-beta1 in the blood vessel wall (in words),TGF-beta1; Example 2,no effect
same,level of TGF-beta1 in the blood vessel wall (in words),TGF-beta1; Example 3,no effect
same,TGF-b1 staining,TGF-beta1; Fish oils 100 mg/kg/day,65 ± 11 AU
same,"Level of mRNA, estimated by qPCR: tgfb3",tgfb3 mRNA; 10 μM A,1.09 ± 0.08 fold-change
same,"Level of mRNA, estimated by qPCR: tgfb3",tgfb3 mRNA; 33 μM A,1.06 ± 0.13 fold-change
same,"Level of mRNA, estimated by qPCR: tgfb3",tgfb3 mRNA; 100 μM A,0.94 ± 0.09 fold-change
same,Intimal lipid lesion area,apoE-deficient mice; [1],"31,006 ± 7,176 μm2"
same,Intimal:media area ratio,apoE-deficient mice; [1],62 ± 9%
same,Lipid lesion area,apoE-deficient mice; [1],"35,860 ± 8,091 μm2"
same,Total intimal area,apoE-deficient mice; [1],"65,209 ± 6.712 μm2"
same,Intimal lipid lesion area,apoE-deficient mice; [2],"31,006 ± 7,176 μm^2"
same,Intimal:media area ratio,apoE-deficient mice; [2],62 ± 9%
same,Lipid lesion area,apoE-deficient mice; [2],"35,860 ± 8,091 μm^2"
same,Total intimal area,apoE-deficient mice; [2],"65,209 ± 6,712 μm^2"
same,effect on total intimal area and intimal:medial area ratio,apoE-deficient mice; Example 2,did not affect
same,reduction of vascular lipid lesion area,apoE-deficient mice; aspirin 30 mg/kg/day p.o,6%
same,effect on any measure of vascular lipid lesion area or plaque size,"apoE-deficient mice; administered separately, fish oil 100 mg/kg/day p.o, aspirin 30 mg/kg/day p.o",no statistically significant effect
CC/C(=C(\c1ccccc1)c1ccc(OCCN(C)C)cc1)c1ccccc1 [Tamoxifen],TGF-b1 staining,"TGF-beta1; 12 weeks, TMX 1 mg/kg/day",94 ± 9 AU
same,level of TGF-beta1 in the blood vessel wall (in words),TGF-beta1; Example 2,increased
same,"Level of mRNA, estimated by qPCR: tgfb3",tgfb3 mRNA; 3.3 μM T,0.92 ± 0.16 fold-change
same,"Level of mRNA, estimated by qPCR: tgfb3",tgfb3 mRNA; 10 μM T,1.19 ± 0.21 fold-change
same,"Level of mRNA, estimated by qPCR: tgfb3",tgfb3 mRNA; 33 μM T,1.31 ± 0.11 fold-change
same,doses that significantly increased tgfb3 mRNA,tgfb3 mRNA,≥ 10 µM
same,Intimal lipid lesion area,apoE-deficient mice; [2],"9,393 ± 2,221 * μm^2"
same,Lipid lesion area,apoE-deficient mice; [2],"10,794 ± 2,820 * μm^2"
same,Total intimal area,apoE-deficient mice; [2],"64,428 ± 4,294 μm^2"
same,reduction of vascular lipid lesion area,apoE-deficient mice; aspirin 30 mg/kg/day p.o,72%
